Measurements taken from patent publication US7399825B2, “Synthetic peptide, inhibitor to DNA viruses” (priority 2003, dated 2008).
No end group written: not given here.

How the values were obtained:
[1] = tested on: herpes viruses; test: Antiviral activity of synthetic Herp versions (13, 10 and 5 amino acids); assay type: cell-based; details: synthetic versions of Herp compared
Description: ID. […] The sequencing and synthesizing was contracted out to the Protein Core Laboratory of Baylor College of Medicine, Houston, Tex.
Infectivity Inhibition of HSV-1 and HSV-2 Viruses by Synthetic Herp: For comparison, Herpoxin and the synthetic Herps were tested in Vero cell cultures infected with HSV-1 or HSV-2 viruses. The cells were infected in serial concentrations from 10^2 to 10^8. Three wells were used for each concentration. After absorption of the virus the cultures were divided into three groups. Group one received medium containing PBS as a […] control, group two received medium containing 10 μg/ml of Herpoxin (natural Herp) and in the remaining group the medium was incorporated with 10 μg/ml synthetic Herp (Syn-Herp-10 amino acid (AA) version). The tests were read after six days and TCID/50 were calculated from CPE.

[2] = tested on: uninfected cells; details: up to 200 μg/ml

Substance | antiviral activity / inhibition of herpes viruses [1] | effect on the respective uninfected cells [2]
Asn-Leu-Tyr-Gln-Phe (NLYQF; SYNTHESIZED. CORRESPONDS TO POSITIONS 1-5 OF SEQ. ID. NO. 1.) [SEQ. ID. NO. 3, synthetic Herp of 5 amino acids from the N-terminal] | good results | –
NLYQFKNMIQ [Syn Herp, Asn-Leu-Tyr-Gln-Phe-Lys-Asn-Met-Ile-Gln] | – | no effect
NLYQFKNMIQQFL [SEQ. ID. NO. 1] | good results | –
